Experimental data published in patent publication US20190256499A1, “SUBSTITUTED QUINOXALINE DERIVATIVES AS INHIBITORS OF PFKFB” (priority 2016, published 2019).
Values after ≈ are worked out from the molar mass of the structure shown. Where two headings read alike, the source gives them in different places.

Legend:
[1] = biological target: T1, Human recombinant His-tagged PFKFB3 (Homo sapiens, UniProt Q16875); assay: PFKFB3 IC50 determination assay (modified ADP-Glo in vitro kinase assay); assay type: biochemical; conditions: ATP 20 μM, fructose-6-phosphate 2 μM, 2 h, rt
T1 construct: His; made in house
T1 sequence (Q16875 whole entry): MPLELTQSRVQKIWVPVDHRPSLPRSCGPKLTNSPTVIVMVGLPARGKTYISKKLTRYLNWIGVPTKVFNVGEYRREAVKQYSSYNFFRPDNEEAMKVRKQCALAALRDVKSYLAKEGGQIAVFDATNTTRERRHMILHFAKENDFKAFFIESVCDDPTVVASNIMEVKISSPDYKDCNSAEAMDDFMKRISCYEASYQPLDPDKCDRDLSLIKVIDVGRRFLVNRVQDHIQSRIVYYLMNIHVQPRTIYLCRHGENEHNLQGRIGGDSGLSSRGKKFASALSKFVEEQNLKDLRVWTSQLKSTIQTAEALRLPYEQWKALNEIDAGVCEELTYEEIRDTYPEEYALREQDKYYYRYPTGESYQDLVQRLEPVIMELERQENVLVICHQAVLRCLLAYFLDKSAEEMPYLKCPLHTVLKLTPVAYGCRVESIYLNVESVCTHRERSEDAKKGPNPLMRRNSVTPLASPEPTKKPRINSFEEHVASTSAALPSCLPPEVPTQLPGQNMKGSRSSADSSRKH
Experimental: In vitro kinase assay used to determine IC50 values for tested inhibitors is based on a modified ADP-Glo™ system (Promega) and consists of two parts:
1. Kinase reaction—performed in optimized conditions. At this step PFKFB3 phosphorylates its substrate fructose-6-phosphate using ATP as a source of phosphate to produce fructose-2,6-bisphosphate and ADP. Reaction is performed at Km values for ATP and substrate using optimized buffer composition and time of the reaction. Human recombinant His-tagged PFKFB3 (PFKFB3 BATCH II SEC) with confirmed activity is produced and purified in-house. 2. Detection of ADP as a product of the reaction using ADP-Glo™ system. This part is conducted by using the commercially available kit ADP-Glo™ Kinase Assay (Promega, cat. No# V9103) according to manufacturer's instruction, modified by 5× dilutions of assay reagents (both ADP-Glo™ Reagent and Kinase Detection Solution). Reproducibility and reliability of this modification is confirmed in an optimization process.
Test compounds are dissolved in DMSO and then transferred to the V-bottom 96-well plate. For IC50 determination ten 10× serial dilutions starting from 100 μM are prepared.
Two mixes are prepared on ice: Mix 1—containing appropriate kinase amount in 2× reaction buffer (100 mM TRIS pH 8.0) and Mix 2—containing 2.31× concentrated substrate (Fructose-6-phosphate) and ATP in MilliQ water. 15 μL per well of Mix 1 is transferred to assay wells of 96-well white plate. Next, 2 μl of 15× concentrated test compound in DMSO is added to Mix 1 for 20 min pre-incubation, followed by addition of Mix 2 (13 μl/well). Total reaction volume is 30 μL per well. Samples are tested in duplicates. Final concentration of DMSO in the reaction is 6.7%. Conditions needed for performing PFKFB3 (PFKFB3 BATCH II SEC) in vitro kinase assay are given below:
This protocol is based on Technical Bulletin, ADP-Glo™ Kinase Assay (Promega) and is adapted to 96-well plate containing 30 μL reaction mixture:
30 μL of 5× diluted ADP-Glo™ Reagent is added to each well of 96-well plate containing 30 μL of reaction mixture. The plate is incubated for 90 minutes on a shaker at rt. 60 μL of 5× diluted Kinase Detection Solution is added to each well of 96-well plate containing 60 μL of the solution (ratio of kinase reaction volume to ADP-Glo™ Reagent volume to Kinase Detection Solution volume is maintained at 1:1:2). Plate is incubated for 40 minutes on a shaker at rt, protected from light. Luminescence is measured in the plate reader Synergy 2 (BioTek).
Luminescent readouts for compounds tested in 10 concentrations (routinely from 100 μM to […], […] serial dilutions) in duplicates, as well as for positive control, are first normalized to no-substrate negative control by its subtraction. In the next step, % of normalized positive control is calculated for each data point and plotted against test compound concentration:
% of control—percent of positive control normalized to no-substrate negative control Lumcpd—luminescence of test compound Lumneg—luminescence of no-substrate negative control Lumpos—luminescence of positive control
IC50 parameter is determined by the GraphPad Prism 5.0 software [log(inhibitor) vs. response—Variable slope (four parameters)].

[2] = Microsomal stability (intrinsic clearance), mouse liver microsomes; assay type: in vitro ADME; design: microsomal CLint: dose or concentration left out as unconfirmed; conditions: for microsomal CLint: mouse, liver microsomes, pH 7.4, mouse liver microsomes
Description: (§1) A microsomal stability assay is used to measure in vitro clearance (Clint). The assay involves measuring the rate of disappearance of a compound due to its intrinsic attitude to be metabolized (“intrinsic” meaning that the disappearance is not affected by other properties like permeability, binding etc. that play a role when quantifying in vivo clearance). The microsomal stability (intrinsic clearance, Clint) and thus metabolic stability is generally given as μl/min/mg protein. It can be visualized as the volume of solution that 1 mg of microsomes is able to clear of the compound in one minute.
(§2) A Tecan Genesis workstation (RSP 150/8) was used for to perform the microsomal incubations. Analysis was carried out using a Waters ACQUITY UPLC system coupled to an ABSciex API3000 mass spectrometer. Data analysis was performed using Assay Explorer (Symyx).
(§3) Mobile phases: A=0.1% formic acid in water; B=acetonitrile
(§4) Flow rate: 0.750 mL/min; Detection: ESI, MRM; Injection: 10 μL; Column temperature: 50° C.
(§5) Potassium phosphate buffer: 0.05 M potassium phosphate buffer pH 7.4 containing 1 mM MgCl2 NADPH (nicotinamide adenine dinucleotide phosphate): 22.5 mg NADPH-Na4 in 1.8 ml potassium phosphate buffer Acetonitrile: 50 Vol % acetonitrile (1 volume acetonitrile, 1 volume water) DMSO: 20 Vol % DMSO in water Stock solution of 20 mg/ml human or mouse liver microsomes (protein)/ml in phosphate buffer Stock solution of 10 mM compound in 100% DMSO

[3] = Microsomal stability (intrinsic clearance), human liver microsomes; assay type: in vitro ADME; design: microsomal CLint: dose or concentration left out as unconfirmed; conditions: for microsomal CLint: human, liver microsomes, pH 7.4, human liver microsomes
Description: as §1, §2, §3, §4, §5

Kinetic solubility = assay type: physicochemical; conditions: phosphate buffer 20 mM pH 7.4, 2% DMSO, room temperature; for solubility kinetic at 120 min: phosphate buffer, pH 7.4, aqueous buffer, kinetic from dmso stock
Experimental: Kinetic solubility of compounds of the present invention were tested according the following procedure.
(a) Buffer Solution Phosphate Buffer 20 mM pH 7.4 is prepared using Sorensen Phosphate Buffer 0.2 M pH 7.4 (EMS) in a 1000 mL volumetric flask (b) 2% DMSO in Phosphate Buffer 20 mM pH 7.4 is prepared by using 1 mL Dimethylsulfoxide (Merck) and 49 ml Sorensen Phosphate Buffer 20 mM pH 7.4 (c) Acetonitrile/Methanole/Eluent A (1:1:2; v/v/v) is prepared by using 50 mL Acetonitrile (Merck), 50 mL Methanol (Merck) and 100 mL Eluent A (d) Eluent A is prepared by using 1 mL Formic Acid (Merck) and 999 mL Ultrapure water (e) Eluent B is prepared by using 1 mL Formic Acid (Merck) and 999 mL Acetonitrile (Merck) (f) Filtration plate: Millipore MultiScreen HTS HV (0.45 μm) 96 Well (Millipore)
98 μL buffer solution (a) is added into a well of a 96 well filtration plate (f). Then 2 μL of 10 mM test compound solution in DMSO (Remp tube) is added. The filtration plate is incubated at room temperature for 120 minutes while agitating at 250 rpm and centrifuged with the PP-Plate (g) as receiver plate below (2500 rpm, 3 min). The 50 μL of filtrate is taken from the receiver plate and mixed with 50 μL of 2% DMSO in buffer pH 7.4 solution (b) (dilution factor=2) in a HPLC Vial (i)+(j).
Standard is prepared by diluting 2 μL of the same 10 mM test compound solution (Remp tube) diluted with 198 μL Acetonitrile/Methanole/Eluent A (1:1:2; v/v/v) (c) to prepare a 100 μM standard solution in a HPLC Vial (i)+(j).
Column temperature: 37° C. Autosampler: room temperature (approx. 25° C.) Gradient programme: […]
Injection volume: 10 μL Wavelength: Suitable wavelength (maximum sensitivity) selected out of wavelength range of 190-400 nm using a DAD detector.
L [μg/mL]=(area sample*concentration standard*dilution factor sample)/(area standard*dilution factor standard)
S [mol/L]=[…] Calculation: […]

[4] = PFKFB IC50, human recombinant PFKFB3 25 nM
[5] = human recombinant PFKFB3 25 nM, read-out: PFKFB IC50

IC50 [1, 4] [nM]	CLint Mouse ([2]; mouse liver microsomes) [μl/min/mg prot]	Kinetic solubility (Kinetic solubility; 120 minutes) [µM]	CLint Human ([3]; human liver microsomes) [μl/min/mg prot]	SMILES	microsomal CLint [2] [µL/min/mg]	microsomal CLint [3] [µL/min/mg]	IC50 [1, 5] [nM]	solubility kinetic at 120 min (Kinetic solubility) [µM]
25				COc1ccc(C(Nc2cc(-c3ccc4ccn(C)c4c3)c3nccnc3c2)c2cnnn2C)cn1 (racemic) [Comparative Example 1, [(6-Methoxy-pyridin-3-yl)-(3-methyl-3H-[1,2,3]triazol-4-yl)-methyl]-[8-(1-methyl-1H-indol-6-yl)-quinoxalin-6-yl]-amine, reference compound]	188	163		
	92	64	61	Cn1ccc2ccc(-c3cc(NC(c4cccnc4)c4ccc(=O)[nH]n4)cc4nccnc34)cc21 (single isomer, unassigned) [Example 3]			180	
				COc1ccc([C@H](Nc2cc(-c3ccc4ccn(C)c4c3)c3nccnc3c2)c2cccnc2)nn1 (single isomer, unassigned) [Example 6]	134	174	900	18 (≈ 8.52 µg/mL)
				Cn1cc([C@@H](Nc2cc(-c3ccc4ccn(C)c4c3)c3nccnc3c2)c2cnnn2C)cn1 (single isomer, unassigned) [Example 9]	146	52	87	110 (≈ 49.4 µg/mL)
				Cn1cc([C@@H](Nc2cc(-c3ccc4ccn(C)c4c3)c3nccnc3c2)c2cncn2C)cn1 (single isomer, unassigned) [Example 12]			44	
				Cn1cc([C@H](Nc2cc(-c3ccc4ccn(C)c4c3)c3nccnc3c2)c2nccn2C)cn1 (single isomer, unassigned) [Example 14]	67	57	640	36 (≈ 16.1 µg/mL)
				Cn1cc([C@@H](Nc2cc(-c3ccc4ccn(C)c4c3)c3nccnc3c2)c2nccn2C)cn1 (single isomer, unassigned) [Example 15]	88	76	560	48 (≈ 21.5 µg/mL)
				Cn1cc([C@@H](Nc2cc(-c3ccc4ccn(C)c4c3)c3nccnc3c2)c2cccnc2)cn1 (single isomer, unassigned) [Example 17]	95	172	120	42 (≈ 18.7 µg/mL)
				Cn1cc([C@H](Nc2cc(-c3ccc4ccn(C)c4c3)c3nccnc3c2)c2cccnc2)cn1 (single isomer, unassigned) [Example 18]	148	142	6.5	39 (≈ 17.4 µg/mL)
				CC(C)[C@@H](Nc1cc(-c2ccc3ccn(C)c3c2)c2nccnc2c1)c1cccnc1 (single isomer, unassigned) [Example 20]	> 500	> 500	33	6 (≈ 2.45 µg/mL)
23				CC(C)[C@H](Nc1cc(-c2ccc3ccn(C)c3c2)c2nccnc2c1)c1cccnc1 (single isomer, unassigned) [Example 21]	488	366		7 (≈ 2.85 µg/mL)
				Cn1cc([C@@H](Nc2cc(-c3cnc4ccn(C)c4c3)c3nccnc3c2)c2cccnc2)cn1 (single isomer, unassigned) [Example 26]	58	67	1100	192 (≈ 85.7 µg/mL)
				Cn1cc([C@H](Nc2cc(-c3cnc4ccn(C)c4c3)c3nccnc3c2)c2cccnc2)cn1 (single isomer, unassigned) [Example 27]	64	404	6300	161 (≈ 71.9 µg/mL)
				Cn1ccc([C@@H](Nc2cc(-c3ccc4ccn(C)c4c3)c3nccnc3c2)c2cnnn2C)n1 (single isomer, unassigned) [Example 29]	69	51	22	108 (≈ 48.5 µg/mL)
				Cn1ccc([C@H](Nc2cc(-c3ccc4ccn(C)c4c3)c3nccnc3c2)c2cnnn2C)n1 (single isomer, unassigned) [Example 30]	216	132	190	96 (≈ 43.2 µg/mL)
				COc1ccc([C@H](Nc2cc(-c3ccc4ccn(C)c4c3)c3nccnc3c2)c2cnnn2C)cn1 [Comparative Example 2, N—[(S)-(6-methoxypyridin-3-yl)(1-methyl-1H-1,2,3-triazol-5-yl)methyl]-8-(1-methyl-1H-indol-6-yl)quinoxalin-6-amine, reference compound]	134	113	3.5	22 (≈ 10.5 µg/mL)
